Test results reported in EP1825852A1, “ST104P as an anti-angiogenic agent” (Sagittarius Life Science Corp., priority 2006, dated 2007).
Like-named read-outs stand apart in the source and are kept apart here.

Columns and labels:
BAEC [1] = assay: Cytotoxicity: cell proliferation assay (crystal violet stain) and morphology; type: cell-based, Bovine
Description: (§1) Fig.1. The cytotoxicity of ST104P in different types of cells. […] After treatment of ST104P at 10-500 µg/ml in DMEM medium containing 10% FCS for 24 h, the morphologies of BAEC and 3T3 cells were monitored under phase contrast microscopy. The pictures were taken at 400× magnification. (B). The dose-dependent effect of ST104P on the proliferation of different cells. After treatment with ST104P at 10-500 µg/ml or PBS for 48 h, the viability of various cells was determined by crystal violet method in an ELISA reader. Each data represent mean ± SD of quadruplicate experiments. Asterisks indicated statistic significance versus control (P<0.001).
Human umbilical vein endothelial cells (HUVEC; passage 3 to 6) were isolated from umbilical veins and cultured in RPMI 1640 medium (Life Technologies, Gaithersburg, MD) containing 15% fetal calf serum, 20 U/ml porcine heparin (Sigma Chemical Co), and 100 µg/ml endothelial cell growth supplement (Calbiochem; La Jolla, CA). Bovine aortic endothelial (BAEC) cells, 3T3 cells, and LL2 Lewis lung carcinoma cells were cultured with DMEM (Dulbecco's Modified Eagle Medium; Gibco BRL, Rockville, MD) containing 10% fetal calf serum (PAA, Austria), 2 mM glutamine, 100 U/ml penicillin and 100 µg/ml streptomycin (Gibco BRL, Rockville, MD) in 5% CO2 at 37 °C. Human vascular endothelial EA.hy926 cells were cultured in DMEM (Dulbecco's Modified Eagle Medium; Gibco BRL, Rockville, MD) containing 10% fetal calf serum (PAA, Austria), 100 µM sodium hypoxanthine, 0.4 µM aminopterin, 16 µM thymidine (HAT; Gibco BRL, Rockville, MD), 2 mM glutamine, 100 U/ml penicillin and 100 µg/ml streptomycin (Gibco BRL, Rockville, MD) in 5% CO2 at 37 °C.
The effect of ST104P on the viability of various cells was determined using crystal violet stain assay. Briefly, cells cultured in 96-well plate (2-4 x10^3 cells/well) were treated with various doses of ST104P for 48 h. […] The dye in viable cells was measured by reading the optical density at 590 nm using a scanning multi-well spectrophotometer (ELISA reader; Dynatech Laboratories, Chantilly, VA).

[2] = in vivo
CAM = assay: Chorioallantoic membrane (CAM) assay
Description: The CAMs in 8-day old chicken embryos were incubated with saline or ST104P (50 or 200 µg in saline) for 48 h. The angiogenesis profiles on CAMs were recorded under dissection microscope.
The CAM assay was carried out as described previously (Sheu et al., Anticancer Res 18, 4435-4441,1998). Briefly, fertilized White Leghorn chicken eggs were purchased from Taiwan Provincial Research Institute for Animal Health (Hsin-Chu, Taiwan) and incubated at 37 °C with 60% humidity. On day 3, a square window was opened in the shell, and 2 to 3 ml of albumen was removed to allow detachment of the developing CAM. The window was sealed with a glass, and the eggs were returned to the incubator. On day 8, 50-100 µg ST104P in saline was injected onto the top of the CAM. The CAMs were examined daily until day 10-12, when the angiogenic response peaks, and photographed in ovo with a stereomicroscope equipped with Zeiss MC63 camera system (Zeiss, Oberkochen, Germany). The experiments were carried out using 10 eggs per group.

3T3 cells = assay: Cytotoxicity: cell proliferation assay (crystal violet stain) and morphology; type: cell-based
Description: as §1
(§2) Human umbilical vein endothelial cells (HUVEC; passage 3 to 6) were isolated from umbilical veins and cultured in RPMI 1640 medium (Life Technologies, Gaithersburg, MD) containing 15% fetal calf serum, 20 U/ml porcine heparin (Sigma Chemical Co), and 100 µg/ml endothelial cell growth supplement (Calbiochem; La Jolla, CA). […]
(§3) The effect of ST104P on the viability of various cells was determined using crystal violet stain assay. […] The dye in viable cells was measured by reading the optical density at 590 nm using a scanning multi-well spectrophotometer (ELISA reader; Dynatech Laboratories, Chantilly, VA).

BAEC [3] = assay: Tube formation assay in Matrigel; type: cell-based, Bovine; conditions: 20-100 µg/ml
Description: (§4) Fig. 3. ST104P abolished the tube formation of endothelial cells. Application of ST104P perturbed tubular network of BAEC or EA.hy9236 cells in Matrigel. Endothelial cells were applied to Matrigel-coated plate in the absence or presence of ST104P. After 8 h, the tubular structures of BAEC cells were monitored and recorded under light microscopy. The pictures were taken at 400× magnification.
(§5) Matrigel (Becton Dickinson; Bedford, MA) was diluted with cold serum-free medium to 10 mg/ml. Two hundred µl of the diluted solution were added to each well in 24-well plate and allowed to form a gel at 37 °C for 30 min. BAEC or HUVEC (1.5 x 10^5 cells per ml) were initially incubated for 15 min with various doses of ST104P in complete medium. Two hundred µl of the cell suspension (3 x 10^4 cells) were then subsequently added to each well and incubated for 6-8 h at 37 °C in 5% CO2. Under these conditions endothelial cells form delicate networks of tubes that are detectable within 2-3 h and are fully developed after 8-12 h. After incubation with ST104P, the wells were washed and the Matrigel and its endothelial tubes were fixed with 3% paraformaldehyde.

EA.hy926 cells = assay: Tube formation assay in Matrigel; type: cell-based, Human; conditions: 20-100 µg/ml
Description: as §4, §5

BAEC [4] = assay: Cell migration assay (Boyden chamber, bFGF as chemoattractant); type: cell-based, Bovine; conditions: incubation 6 h, bFGF 100 ng/ml
Description: Fig. 2. ST104P inhibited the migration of endothelial cells. The effect of ST104p on migration of endothelial cells. BAEC were plated in 6-well plate (1 x 10^6 cells per well) and treated with vasostatin of indicated dose for 12 h. After trypsinization, endothelial cells were applied to top wells in Boyden chamber to initiated migration toward chemoattractant bFGF (100 ng/ml) in the bottom wells. The migrated cells on filter were stained and counted. Each point represents mean ± SEM of triplicate experiments.
Endothelial cells were treated with ST104P of indicated doses for 6-12 h, harvested by trysinization, collected by centrifugation, resuspended in DMEM media containing 0.1% BSA, and seeded in triplicate for each dose and controls in the upper compartment of the chamber (1.2 x 10^5 cells in 400 µl). The lower compartment was filled with 200 µl of the DMEM media containing 100 ng/ml bFGF (R&D, Minneapolis, MN) as the chemoattractant, or with DMEM media containing 0.1% BSA as the negative control (to evaluate random migration). […] After incubation for 2-4 h in a humidified 5% CO2 atmosphere at 37 °C, cells on the upper side of the filter were removed, and those that had migrated to the lower side were fixed in absolute ethanol, stained with 10% Giemsa solution (Merck, Germany), and counted as a mean ± SD per filter under five different high power fields.

Lewis lung carcinoma = type: in vivo, C57BL/6J mice
Description: Fig. 6. Injection of ST104P suppressed tumor growth of Lewis lung carcinoma in mice. The subcutaneous dorsa of mice were implanted with Lewis lung carcinomas. The tumor sizes in mice during treatment with ST104P or control were recorded. […] Each point represents mean ± SEM for ten mice.
Fig. 7. Injection of ST104P prolonged the survival of tumor-bearing mice. The subcutaneous dorsa of mice were implanted with Lewis lung carcinomas. The tumor sizes in mice during treatment with ST104P or control were recorded. […] Each point represents mean ± SEM for ten mice. The overall survival rates of ten mice in PBS- or ST104P-treated group were recorded.
Animal study was carried out in the animal facility of Kaohsiung Veterans General Hospital in accordance with institutional guidelines. Male C57BL/6J mice (6- to 8-week-old; Animal Center of National Cheng Kung University, Taiwan) were used. Mice were acclimated and caged in groups of four or less. All mice were fed with a diet of animal chow and water ad libitum. Animals were anesthetized in a methoxyflurane chamber prior to all procedures and were observed until fully recovered. Animals were sacrificed by a lethal dose of methoxyflurane.
C57BL/6J mice were implanted with Lewis lung carcinomas cells using the techniques described previously (O'Reilly et al., Cell 88, 277-285,1997). Briefly, the LL2 Lewis lung carcinoma cells were resuspended in PBS at the concentration of 2.5 x 10^6 cells per ml and injected into C57B16/J mice (n = 20) with 0.1 ml of the cell suspension to induce tumor. Tumors were measured with a dial-caliper and volumes were determined using the formula width^2 × length × 0.52. After tumor volumes reached 100-200 mm^3, mice were randomized into two groups receiving periodic injection of ST104P (n=10) or saline (n = 10) by subcutaneous injection at a site near tumor. The measurement of tumor size was terminated when mice began to die. In addition, the survival rate of mice in different groups was recorded and analyzed by Kaplan-Mier Survival analysis.

MMP-9 = assay: MMPs secretion by endothelial cells, gelatin zymography; type: cell-based; conditions: BAEC and EA.hy926, even at dose as low as 10 µg/ml, 24 h, conditioned media
Description: (§6) ST104P decreases the MMPs secretion by endothelial cells. The conditioned media of BAECs or EA.hy926 cells (in 24-well plate at 1x10^4 cells/well) treated with PBS or ST104P (10-500 µg/ml) for […] were collected to analyze the expression of MMPs by gelatin-PAGE zymography.
(§7) Secretion of MMPs by endothelial cells was assessed by 0.1% gelatin-SDS-PAGE zymography. Briefly, endothelial cells near 80% confluence were washed twice with serum-free media and treated with various doses of vasostatin for 24-48 h: Conditioned media were collected and assayed for protein concentration by Bradford assay. Aliquots of conditioned media were subjected to separation with 10% SDS-PAGE containing 0.1% type A gelatin (Sigma; St. Louis, MO). After electrophoresis, gel was washed twice with 2.5% Triton X-100, incubated in buffer containing 40 mM Tris-HCl, pH 8.0, 10 mM CaCl2, 0.01% sodium azide at 37 °C for 12-24 h, stained with 0.25% Coomassie Blue R-250 in 50% methanol and 10% acetic acid for 1 h, and destained with 10 % acetic acid, 20% methanol. The gelatinolytic regions by MMPs were visualized as white bands in blue background.

MMP-2 = assay: as above; type: cell-based; conditions: BAEC and EA.hy926, even at dose as low as 10 µg/ml, 24 h, conditioned media
Description: as §6, §7

EA.hy926 [5] = assay: Cell migration assay (Boyden chamber, bFGF as chemoattractant); type: cell-based, Human; conditions: EA.hy926, incubation 6 h, bFGF 100 ng/ml
EA.hy926 [6] = assay: Cytotoxicity: cell proliferation assay (crystal violet stain); type: cell-based, Human
Description: as §1, §2, §3

[7] = molar equivalent given for 500 µg/ml, read-out: IC50
[8] = proliferation/viability, 48 h, crystal violet

tetrameric cyclic compound of 4,5-dihydroxynaphthalene-2,7, disulfonic acid linked by methylene bridges [ST104P]
morphologies of cells (BAEC [1]; 10-500 µg/ml, DMEM with 10% FCS, 24 h, phase contrast microscopy): altered the morphologies of endothelial cells
IC50 (BAEC [1]; [7]): > 350 µM
IC50 (BAEC [1]; [8]): > 500 µg/mL
tolerability [2]: well tolerated
inhibition of angiogenesis (CAM; 50 µg per CAM, 8-day old chick embryos): 50%
mortality of chick embryos (CAM; 200 µg per CAM, 9 out of 10 died versus 0 in PBS-treated group, used as index of angiogenesis inhibition): 90%
vascular network on CAMs (CAM; 50 or 200 µg in saline, 48 h, 8-day old chicken embryos): severely destroyed
IC50 (3T3 cells; [7]): > 350 µM
IC50 (3T3 cells; [8]): > 500 µg/mL
tube formation (vessel-like structure in Matrigel) (BAEC [3]): effectively abolished the vessel-like structure
tube formation (vessel-like structure in Matrigel) (EA.hy926 cells): effectively abolished the vessel-like structure
IC50 (migration toward chemoattractant bFGF) (BAEC [4]): 100 µg/mL
decrease of average tumor size versus saline-treated groups (Lewis lung carcinoma; 100 µg, subcutaneous injection for four times): ~ 40%
average tumor size (Lewis lung carcinoma; 100 µg, subcutaneous injection for four times, saline-treated 4876 ± 670 mm^3, P < 0.05): 2620 ± 320 mm^3
weight loss or adverse effects (Lewis lung carcinoma; mouse, in vivo): no evident weight loss or adverse effects
survival of tumor-bearing mice (Lewis lung carcinoma; versus vehicle-treated group, P < 0.01, Kaplan-Meier): survived significantly longer
secretion of MMP-9 by endothelial cells (MMP-9): potently inhibited the secretion
secretion of MMP-2 by endothelial cells (MMP-2): potently inhibited the secretion
IC50 (migration toward chemoattractant bFGF) (EA.hy926 [5]): 100 µg/mL
IC50 (EA.hy926 [6]; EA.hy926, molar equivalent given for 500 µg/ml, read-out: IC50): > 350 µM
IC50 (EA.hy926 [6]; proliferation/viability, EA.hy926, 48 h, crystal violet): > 500 µg/mL
